Where two headings read alike, the source gives them in different places.
How the values were obtained:
SW684 = assay: expanded in vitro screen, SW684; assay type: cell-based; conditions: Homo sapiens; SW684, Fibrosarcoma
Protocol: (§1) An expanded in vitro screen was performed of spisulosine 285 against a series of different cell lines.

ARH77 = assay: expanded in vitro screen, ARH77; assay type: cell-based; conditions: Homo sapiens, ARH-77; ARH77, Leukemia
Protocol: as §1

[1] = tested on: human prostate cancer (PC-3); assay: xenograft model of human prostate cancer; assay type: in vivo; conditions: for % T/C / Comments: intraperitoneal
Protocol: (§2) Spisulosine 285 was tested in in vivo studies against xenograft models of human prostate cancer (PC-3) and human renal cancer (MRI-H-121). These models use subcutaneously implanted solid human tumors that grow and increase in volume over time. The mean volume of tumor growth in control animals provides the basis for comparison. […] A level of activity that is less than 40% T/C is considered statistically significant. The doses of spisulosine used were given at the maximum tolerated, non lethal dose (MTD), ½ MTD and ¼ MTD. Delivery of the drug was by the intraperitoneal route.

[2] = tested on: L1210 murine lymphocytic leukemia cells; assay: L1210 cytotoxicity assay (inhibition of growth); assay type: cell-based
Protocol: The morphological effect was usually measured 30–35 h after the start of the assay and again about 24 h later, while the cytotoxicity was determined when the number of cells in the controls reached approximately 8000, usually in 3 days after the assay was begun. It should be noted that the pointed cells were live cells and that they were counted as such for the cytotoxicity reading. […] All morphologically-changed cells were counted in the pointed cell percentage.
Cytotoxicity assays against L1210 murine lymphocytic leukemia cells were performed by dissolving the samples in methanol and/or hexane were applied to the dry assay wells and the solvent was allowed to evaporate. Cells (1000) were added in minimum essential medium (MEM, 1 ml) and incubated 37° C. Inhibition of growth was recorded as the estimated percentage of living cells in sample wells versus that in control wells.

P3HR1 = assay: expanded in vitro screen, P3HR1; assay type: cell-based; conditions: Homo sapiens, P3HR-1; P3HR1, Burkitts
Protocol: as §1

[3] = tested on: human renal cancer (MRI-H-121); assay: xenograft model of human renal cancer; assay type: in vivo; conditions: for % T/C / Comments: intraperitoneal
Protocol: as §2

[4] = tested on: L1210 murine lymphocytic leukemia cells; assay: L1210 morphological change (pointed cells); assay type: cell-based; conditions: for % Pointed cells: percent of the living cells; for % Pointed Cells 1st: 27 h
Protocol: Referring to FIG. 1, in the L1210 assay some of the cells changed from being spherical (FIG. 1A) to ovoid with long points approximately […] apart (FIG. 1B). Several other forms have also been observed in assays of these extracts, including cells with points not […] apart (FIG. 1C), cells with more than two points (FIG. 1D), cells with a bulge (FIG. 1E) and cells with a bulge replacing one of the points (FIG. 1F). However, the form with two sharp, opposing points was by far the predominant and characteristic one observed. This type of morphological change had not previously been observed during the screening of over 1000 marine extracts.
As discussed above, the spisulosines caused a distinct morphological change in L1210 leukemia cells, in addition to cytotoxicity. This bioactivity, which was recorded as the percentage of living cells in which altered morphology was observed, could be observed sometimes as early as 13 h after the start of the assay and reached a maximum at 50–60 h, after which it decreased. […] The morphological effect was usually measured 30–35 h after the start of the assay and again about 24 h later, while the cytotoxicity was determined when the number of cells in the controls reached approximately 8000, usually in 3 days after the assay was begun. It should be noted that the pointed cells were live cells and that they were counted as such for the cytotoxicity reading. Also, assays in which 100% cytotoxicity was recorded may still have contained live cells (<0.5%) which may or may not have been pointed. All morphologically-changed cells were counted in the pointed cell percentage.
Morphologically-changed cells (FIGS. 1A–1F) were counted as living cells when determining the percent inhibition of growth. Morphological changes were assessed throughout the assay period. The percentage of pointed cells was determined by counting the number of altered cells in approximately 60 living cells. This percentage varied with the length of time the assay had been running. It generally reached its maximum about 50 hours after the start of the assay, but pointed cells could be observed as early as 13 hours after the start of the assay and could usually still be seen when the percent growth inhibition was measured. The percentages of pointed cells were often counted both after about 35 and after 55 hours. The time that this measurement was made is indicated with the data.

Rho protein = Rho protein electrophoresis / Western blot and subcellular fractionation (Example C); assay type: cell-based; conditions: 0.5 mM, 20 hour
Protocol: The small GTP binding protein Rho is involved in the formation of actin-myosin “stress fibers” (Hall, A., Science, 279, 1998, p 509–514). Therefore, the electrophoretic mobility and cellular distribution of Rho was analyzed in cells treated with spisulosine 285.
FIG. 5 is an electrophoretogram of Example C. In panel A, equivalent amounts of protein from a cell extract from untreated (a) or from 0.5 mM spisulosine 285 treated (20 hour) cells (b) were fractionated by gel electrophoresis and blotted onto nitrocellulose paper to analyze the amount of the Rho protein.
In panel B the experiment was carried out as above, except that the homogenate was fractionated into a particulate (membrane, “M”) fraction and soluble (“S”) fraction.
Subcellular fractionation was carried out by placing cells in a hypotonic buffer (0.25 M sucrose, 20 mM HEPES pH 7.4, 2 mM EDTA, 1 mM PMSF, […] aprotinin, leupeptine and pestatine), and lysing them with a Dounce. The homogenate was first centrifuged at 750 g for 5 minutes to remove nuclei and unbroken cells, and the supernatant was further centrifuged at 30,000 g for 1 hour (4° C.) to isolate a pelleted particulate fraction (putative membrane fraction) and a supernatant. The different fractions were characterised by electrophoresis and Western Blotting using an antibody against the Rho protein.

786-0 = assay: expanded in vitro screen, 786-0; assay type: cell-based; conditions: Homo sapiens; 786-0, Renal, solid
Protocol: as §1

## CCCCCCCCCCCCCCC[C@@H](O)[C@H](C)N [Spisulosine 285, (2S,3R)-2-Amino-3-octadecanol]
SW684
  IC50: 1.05 nM
ARH77
  IC50: 0.0136 nM
[1]; at higher doses
  effect on tumour size (in words): significantly reducing the tumour size
[1]; total dose 2.499 mg/kg, day 15
  % T/C: 223%
[1]; total dose 5.010 mg/kg, day 11
  % T/C: −1%
  Comments: stasis (complete remission)
[1]; total dose 9.990 mg/kg, day 11
  % T/C: −21%
  Comments: stasis (complete remission)
[2]; Mus musculus, L1210, 0.01 μg/ml
  cytotoxicity at 0.01 µg/mL: 45%
[2]; Mus musculus, L1210, 0.025 μg/ml
  cytotoxicity at […]: 90%
[2]; Mus musculus, L1210, 0.05 μg/ml
  cytotoxicity at 0.05 µg/mL: 96%
[2]; Mus musculus, L1210, 0.1 μg/ml
  cytotoxicity at 0.1 µg/mL: 99%
[2]; Mus musculus, L1210, 0.1 μg/ml, read-out: % Inhibitiion
  inhibition at 0.1 µg/mL: 63%
[2]; Mus musculus, L1210, 0.25 μg/ml
  cytotoxicity at […]: 99%
[2]; Mus musculus, L1210, 0.25 μg/ml, read-out: % Inhibitiion
  inhibition at […]: 96%
[2]; Mus musculus, L1210, 0.5 μg/ml
  cytotoxicity at 0.5 µg/mL: 100%
[2]; Mus musculus, L1210, 0.5 μg/ml, read-out: % Inhibitiion
  inhibition at 0.5 µg/mL: 99%
[2]; Mus musculus, L1210, 1 μg/ml, read-out: % Inhibitiion
  inhibition at 1 µg/mL: 100%
[2]; Mus musculus, L1210, 2.5 μg/ml, read-out: % Inhibitiion
  inhibition at […]: 100%
[2]; Mus musculus, L1210, 5 μg/ml, read-out: % Inhibitiion
  inhibition at 5 µg/mL: 100%
[2]; listed as 1
  L1210 cytotoxicity (in words): showed both cytotoxicity and morphological alteration
P3HR1
  IC50: 0.0673 nM
[3]; effects continuing up to a few weeks after the last dose
  effect on tumour growth (in words): reduces the growth of the human renal cancer
[3]; total dose 2.499 mg/kg, day 15
  % T/C: 43%
[3]; total dose 5.010 mg/kg, day 11
  % T/C: 35%
  Comments: inhibition (partial
[3]; total dose 9.990 mg/kg, day 11
  % T/C: 28%
  Comments: inhibition (partial
[4]
  L1210 morphological alteration / pointed cell activity (in words): pointed cell activity
[4]; 0.01 μg/ml
  % Pointed cells: 1%
[4]; 0.05 μg/ml
  % Pointed cells: 71%
[4]; 0.1 μg/ml
  % Pointed Cells 1st: 33%
  % Pointed cells: 62%
[4]; 0.5 μg/ml
  % Pointed Cells 1st: 56%
  % Pointed cells: 97%
[4]; 1 μg/ml
  % Pointed Cells 1st: 64%
[4]; 5 μg/ml
  % Pointed Cells 1st: ad
Rho protein
  amount or mobility of Rho: No significant change
  proportion of Rho associated with the particulate fraction: decrease
786-0
  IC50: 0.00275 nM
